Consider 15 molecules from patent US6423725B1 (dated 2002).

Each structure is given as a SMILES string. Counter-ions that a name gives are not always drawn.

The melting point is the temperature, or range, at which the solid turns liquid. On to `CC1(C)CCC(c2ccccc2)(N2CCC(n3c(=O)[nH]c4ccccc43)CC2)CC1` (as salt: hydrochloride), for which the melting point turned out to be 256 °C.

For `O=c1[nH]c2ccccc2n1C1CCN(C2(c3ccccc3)CCCCCCC2)CC1` (as salt: hydrochloride), the melting point is 196 °C.

`O=c1[nH]c2ccccc2n1C1CCN(C2(c3ccccc3)CCCCCCCC2)CC1` (as salt: hydrochloride) yielded a melting point of 187 °C.

As to `O=c1[nH]c2ccccc2n1C1CCN(C2(c3ccccc3)CCCCCCCCC2)CC1` (as salt: hydrochloride), the melting point came out at 217 °C.

Molecule `O=c1[nH]c2ccccc2n1C1CCN(C2(c3ccccc3)CCCCCCCCCC2)CC1` (as salt: hydrochloride) had a melting point of 196 to 202 °C.

As to `O=c1[nH]c2ccccc2n1C1CCN(C2(c3ccccc3)CCCCCCCCCCC2)CC1` (as salt: hydrochloride), the melting point amounted to 251 °C.

The molecule `O=c1[nH]c2ccccc2n1C1CCN(C2(c3ccc(F)cc3)CCCCCC2)CC1` (as salt: hydrochloride) registered a melting point of 185 to 192 °C.

`O=c1[nH]c2ccccc2n1C1CCN(C2(c3cccc(F)c3)CCCCCC2)CC1` (as salt: hydrochloride) showed a melting point of 196 to 199 °C.

With `COc1cccc(C2(N3CCC(n4c(=O)[nH]c5ccccc54)CC3)CCCCCC2)c1` (as salt: hydrochloride), the melting point lay within 216 to 218 °C.

For `COc1ccccc1C1(N2CCC(n3c(=O)[nH]c4ccccc43)CC2)CCCCCC1` (as salt: hydrochloride), the melting point fell in the range of 167 to 173 °C.

The molecule `CC(C)(C)C1CCC(c2ccccc2)(N2CCC(n3c(=O)[nH]c4ccccc43)CC2)CC1` (stereo not drawn) (as salt: hydrochloride) displayed a melting point of 218 to 219 °C.

`O=C(c1ccccc1)c1ccc2c(c1)[nH]c(=O)n2C1CCN(C2(c3ccccc3)CCCCCC2)CC1` (as salt: hydrochloride) showed a melting point of 118 to 122 °C.

As to `CCCC1(N2CCC(n3c(=O)[nH]c4ccccc43)CC2)CCC2(CCCCC2)CC1` (as salt: hydrochloride), the melting point was 240 to 247 °C.

The molecule `CNCCn1c(=O)n(C2CCN(C3(c4ccccc4)CCCCCC3)CC2)c2ccccc21` (as salt: hydrochloride) showed a melting point of 217 °C.

On to `COc1ccc(C2(N3CCC(n4c(=O)[nH]c5ccccc54)CC3)CCCCC2)cc1` (as salt: hydrochloride), for which the melting point fell in the range of 193 to 197 °C.
